This passage reports EC50 and percent span inhibition results from PubChem BioAssay AID1324 (NMMLSC, 2008).

pEC50: −log10 of the molar value. Activity calls are given as the source filed them. No rule for the calls is given here.

The term pEC50 denotes the negative decadic logarithm of the EC50, by convention in mol/L.

For one assay, the target named is glutathione S-transferase (GST-GSH binding). As to the kind of experiment: GST–glutathione interaction disruption – biochemical, multiplex beads, flow cytometry, HPSMTB buffer, profiling panel (AID 1324).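 Also: glutathione beads loaded with GST-green fluorescent protein and no fluorescent Bim peptide.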 The settings on record: multiplex bead flow cytometry, MCF.
`COc1ccc(-n2c(=O)c3ccccc3c3ccccc3c2=O)c(OC)c1`: the EC50 entry is “inactive”.
For `O=[N+]([O-])c1ccc(N/N=C/c2ccc(O)c(O)c2O)c(S(=O)(=O)N2CCOCC2)c1`, the EC50 entry is “inactive”.
As for `O=C(NCCO)c1ccc2nc(-c3ccco3)c(-c3ccco3)nc2c1`, the negative-log EC50 (pEC50) was 5.04.
For the molecule `COC(=O)c1sc2nc[nH]c(=O)c2c1C`, the EC50 entry is “inactive”.
Consider `CN(C)[C@@H]1C(=O)C(C(=O)NCN2CCCC2)=C(O)[C@@]2(O)C(=O)C3=C(O)c4c(O)cccc4[C@@](C)(O)C3CC12` (stereo partly drawn), for which the EC50 result was “inactive”.

Staying with this assay, now noted: multiplex bead flow cytometry, MCF, hits give high values, concentration not given here.
Consider `Cc1cccc(-n2c(-c3ccncc3)n[nH]c2=S)c1`, for which the percent span inhibition entry was “inactive”.
As to `Fc1cccc(Nc2nc(-c3ccncc3)nc3ccccc23)c1`, the percent span inhibition result was “inactive”.
`Cc1cc(N2CCN(C)CC2)nc2ccc(NC(=S)N3CCC4(CC3)OCCO4)cc12`: the percent span inhibition result was “inactive”.
With `Cn1cccc1CC(=O)N/N=C\c1ccccc1`, the percent span inhibition entry was “inactive”.
The same measure, in the same setting: the result for `Fc1ccccc1-n1cc(-c2ccccc2)[nH]c1=S` reads “inactive”.
Same read-out and setting: the result for `Fc1ccc(C2=Nc3cccc4cccc(c34)N2)cc1` reads “inactive”.
For `COc1ccc(C2C(C#N)=C(C)NC3=C2S(=O)(=O)c2ccccc23)cc1` (stereo not drawn), the percent span inhibition result was “inactive”.
In the case of `Cc1[nH]c2ccccc2c1C(=O)COC(=O)c1c(-c2c(F)cccc2Cl)noc1C`, the percent span inhibition entry was “inactive”.
For `Clc1nssc1=Nc1ccc(Br)cc1`, the percent span inhibition result is “inactive”.
The same measure, in the same setting: for `CC1(C(=O)N(CC(=O)NC2CCCC2)Cc2ccco2)CC(=O)N=C2C=CC=CN21` (stereo not drawn) the value was “inactive”; for `O=C(/C=C/c1ccc(-c2ccccc2[N+](=O)[O-])o1)c1ccc(F)cc1`, “inactive”.
Take `Cc1[nH]nc(SCC(=O)NCc2ccc(F)cc2)c1[N+](=O)[O-]`: the percent span inhibition result is “inactive”.
For `COc1ccccc1NC(=O)CSc1nnc(-c2ccco2)n1Cc1ccco1`, the percent span inhibition entry was “inactive”.
Take `CCNC(=O)N1c2ccc(OCC)cc2C(C)=CC1(C)C`: the percent span inhibition entry was “inactive”.
Turning to `Cc1cc(NC(=O)CCCC(=O)N(CC(=O)NC2CCCCC2)c2ccccc2)no1`, the percent span inhibition entry was “inactive”.
Regarding `O=[N+]([O-])c1cccc(S(=O)(=O)NCC2CCCO2)c1` (stereo not drawn), the percent span inhibition result was “inactive”.
As to `CC1(C)CC(NC(=O)COc2ccc([N+](=O)[O-])cc2)CC(C)(C)N1`, the percent span inhibition result is “inactive”.
Turning to `Cc1cc(C)c[n+](-c2nc3ccccc3nc2C(=C=[N-])C#N)c1`, the percent span inhibition result was “inactive”.
Same read-out and setting: the result for `Cc1nc2ccccc2n1CSc1ccccc1` reads “inactive”.
In the case of `CSc1nnc2c3cc(C)ccc3n(Cc3ccccc3)c2n1`, the percent span inhibition entry was “inactive”.
Turning to `O=C1c2ccccc2C(=O)c2cc(S(=O)(=O)Nc3ccccc3)ccc21`, the percent span inhibition result was “inactive”.
`Clc1ccc2c(N/N=C/c3cccc(Br)c3)ccnc2c1`: the percent span inhibition entry is “inactive”.
With `COc1ccc(NC(=O)c2sccc2SCc2cccc(C(F)(F)F)c2)cc1`, the percent span inhibition entry was “inactive”.
On the same count and under the same terms, for `CCN(CC)S(=O)(=O)c1cccc(C(=O)N/N=C/c2ccc(O)c(O)c2O)c1` the value was “inactive”; for `N/C(=N\OC(=O)CCC1CCCC1)c1ccncc1`, “inactive”.
Take `O=C(/C=C\c1ccc(-c2ccccc2)o1)c1ccccc1`: the percent span inhibition entry is “inactive”.
Still for that read-out and setting: for `COc1cc(/C=C2\CC/C(=C\c3cc(OC)c(O)c(OC)c3)C2=O)cc(OC)c1O` the value was “inactive”; for `COc1cc(C=Nc2cccc(C)c2)c(O)c([N+](=O)[O-])c1`, “inactive”; for `COc1ccc(Cc2c(O)nc(SC)n(C(C)=O)c2=O)cc1`, “inactive”.
On to `CCOC(=O)CSc1nnc(-c2cccc(Cl)c2)n1CC`, for which the percent span inhibition entry is “inactive”.
With `CCOC(=O)/C(=C\c1cccc(O)c1)c1nc2sc(C)c(C)c2c(=O)[nH]1`, the percent span inhibition entry is “inactive”.
Take `O=S1(=O)N=C(N(CCO)/N=C/C=C/c2ccccc2)c2ccccc21`: the percent span inhibition entry is “inactive”.
The same measure, in the same setting: for `CN1CCc2cccc3c2[C@H]1Cc1ccc(O)c(O)c1-3` the value was “inactive”; for `O=C(NC1=C(Nc2ccc(F)cc2)C(=O)c2ccccc2C1=O)c1ccc(Cl)cc1`, “inactive”.
On to `O=C(Cc1ccccc1)N/N=C/c1cccn1-c1ccc([N+](=O)[O-])cc1`, for which the percent span inhibition result is “inactive”.
With `CN(C)C(Cc1ccccc1)C(=O)c1cccs1` (stereo not drawn), the percent span inhibition entry was “inactive”.
With `Cc1ccc(/C=C/C(=O)Nc2ccc([N+](=O)[O-])c(NC(=O)/C=C/c3ccc(C)o3)c2)o1`, the percent span inhibition result was “inactive”.
The same measure, in the same setting: for `CC1=CC(=O)c2ccccc2C1=O` the value was “inactive”; for `Cc1c(N2C(=O)c3ccc4c5c(ccc(c35)C2=O)CC4)c(=O)n(-c2ccccc2)n1C`, “inactive”; for `COc1ccc(NS(=O)(=O)c2cc(NC(=O)c3ccc(C)o3)ccc2N2CCCCC2)cc1`, “inactive”.
`COc1ccc(C(=O)Nc2ccc(NC(=O)c3cccs3)cc2)cc1Cl`: the percent span inhibition entry is “inactive”.
Still for that read-out and setting: for `COc1ccc2nc(NC(=O)c3ccc(-c4cccc([N+](=O)[O-])c4)o3)sc2c1` the value was “inactive”.
In the case of `N/C(=N\N=C/c1ccc(Br)cc1)N/N=C\c1ccc(Br)cc1`, the percent span inhibition entry was “inactive”.
With `c1ccc2c(N3CCOCC3)nc(N3CCOCC3)nc2c1`, the percent span inhibition result was “inactive”.
Consider `O=C(NC1=C(Nc2ccc(Cl)cc2)C(=O)c2ccccc2C1=O)c1ccccc1`, for which the percent span inhibition entry is “inactive”.
The same measure, in the same setting: for `O=C(c1ccccc1)c1ccc2nc(-c3ccco3)c(-c3ccco3)nc2c1` the value was “inactive”; for `O=C(c1cc(=O)c2ccccc2o1)N1CCN(c2ccccc2F)CC1`, “inactive”.
On the same count and under the same terms, the result for `O=C(NCc1ccco1)C1CC2CCC1C2` (stereo not drawn) reads “inactive”; that for `Cc1cccc(C(=O)N=c2c(C#N)cc3c(=O)n4cccc(C)c4nc3n2Cc2ccco2)c1`, “inactive”; that for `CCN(CC)c1ccc(Nc2nc(N3CCOCC3)c3ccccc3n2)cc1`, “inactive”.
For `CCc1nn2cc(C(=O)c3cc(C)ccc3O)cnc2c1-c1ccc(F)cc1`, the percent span inhibition entry is “inactive”.
`O=c1[nH]c2ccc(N=Cc3c(O)ccc4cc(Br)ccc34)cc2[nH]1`: the percent span inhibition entry is “inactive”.
Regarding `Nc1c(C(=O)NC2CC2)sc2nc3c(c(-c4ccco4)c12)CC/C3=C/c1ccco1`, the percent span inhibition entry is “inactive”.
`COc1ccc(CN(C)CC(=O)NC(C)c2ccccc2)c(OC)c1` (stereo not drawn): the percent span inhibition entry is “inactive”.
On to `CCOc1cc(S(=O)(=O)Nc2ccccn2)ccc1F`, for which the percent span inhibition result is “inactive”.
Regarding `COc1ccccc1-n1c(-c2cc(-c3ccc(F)cc3)n[nH]2)n[nH]c1=S`, the percent span inhibition entry is “inactive”.
For `COc1ccc(N2CC(C(=O)Nc3nnc(SCC(=O)c4ccccc4)s3)CC2=O)cc1` (stereo not drawn), the percent span inhibition entry is “inactive”.
For `Cc1cc(-c2csc(N)n2)c(C)n1C`, the percent span inhibition result is “inactive”.
Still for that read-out and setting: the result for `CCOC(=O)N1CCC(c2cc(=O)n(-c3ccccc3)[nH]2)CC1` reads “inactive”; that for `Nc1ccccc1N=c1ssnc1Cl`, “inactive”; that for `O=C(COc1ccccc1)Nc1ccc2c(c1)Cc1cc(NC(=O)COc3ccccc3)ccc1-2`, “inactive”.
Take `CC1Nc2ccccc2C(=O)N1NS(=O)(=O)c1ccccc1` (stereo not drawn): the percent span inhibition result is “inactive”.
Still for that read-out and setting: the result for `Cc1cc(-c2nn(-c3ccccc3)cc2/C=C2\SC(N)=NC2=O)ccc1OC(C)C` reads “inactive”.
On to `COc1ccc(COC(=O)NNC(=O)c2ccccc2Cl)cc1`, for which the percent span inhibition result is “inactive”.
`COCCN=c1scc(-c2ccco2)n1/N=C/c1ccc(O)c(O)c1O`: the percent span inhibition entry was “inactive”.
Take `Cc1cccc(Nc2nc(-c3ccncc3)cs2)c1`: the percent span inhibition result was “inactive”.
Same read-out and setting: for `NC(=O)c1c(NC(=O)C2CCCO2)sc2c1CCCC2` (stereo not drawn) the value was “inactive”; for `COc1cc(C2Nc3cccc4cccc(c34)N2)ccc1OC(C)=O`, “inactive”; for `Cn1c(=O)c(C(=O)COC(=O)c2cc(-c3ccco3)nc3ccccc23)c(N)n(Cc2ccccc2)c1=O`, “inactive”.
Take `CCN1CCN(c2cc(C)c3cc(NC(=S)N4CC(C)CC(C)C4)ccc3n2)CC1` (stereo not drawn): the percent span inhibition result is “inactive”.
As to `CCOC(=O)C1=C(CP(=O)(c2ccccc2)c2ccccc2)NC(=O)NC1c1ccc(OC)cc1` (stereo not drawn), the percent span inhibition result is “inactive”.
Consider `Cc1cc(-c2csc(N)n2)c(C)n1CCC(C)C`, for which the percent span inhibition entry was “inactive”.
Take `S=C1NC2=C(CCC/C2=C\c2ccccc2)C(c2ccccc2)N1` (stereo not drawn): the percent span inhibition entry is “inactive”.
Turning to `S=C(Nc1ccccc1)N1CCn2cccc2C1c1cccnc1` (stereo not drawn), the percent span inhibition result is “inactive”.
Still for that read-out and setting: the result for `O=C(NNC(=O)C12CC3CC(CC(C3)C1)C2)c1ccco1` reads “inactive”; that for `c1ccc(-c2nc(N3CCCCC3)nc3ccccc23)cc1`, “inactive”; that for `O=C(NCCN1CCOCC1)c1cc(Cl)ccc1[N+](=O)[O-]`, “inactive”.
Regarding `CC1C=CCC2C(=O)N(c3ccc(OC(=O)c4cccs4)cc3)C(=O)C12` (stereo not drawn), the percent span inhibition result was “inactive”.
The same measure, in the same setting: the result for `COc1ccccc1-n1c(SCC(=O)N2CCc3ccccc32)nc2c(c1=O)SCC2` reads “inactive”; that for `CC1(C)Cc2c(ccc3ccccc23)/C(=C/C(=O)N2CCCCC2)N1`, “inactive”; that for `CCOC(=O)c1c(NC(C)=O)sc2c(O)c(Br)cc(Br)c12`, “inactive”.
For the molecule `CC1Nc2ccccc2C(=O)N1NS(C)(=O)=O` (stereo not drawn), the percent span inhibition entry was “inactive”.
For the molecule `CCN(CC)c1ccc(NC(=O)c2ccccc2F)cc1S(=O)(=O)Nc1ccccc1OC`, the percent span inhibition entry is “inactive”.
